The source of these data is publication PMC2812657 (Biochemical and biophysical research communications, 2009).

For one assay, the target named is GSK3α (Homo sapiens, UniProt P49840). In words: in vitro kinase profiling assay.
In another assay the target is GSK3β (Homo sapiens, UniProt P49841). Briefly: in vitro kinase profiling assay. The class given is biochemical.
GSK3β, sequence (P49841 whole entry): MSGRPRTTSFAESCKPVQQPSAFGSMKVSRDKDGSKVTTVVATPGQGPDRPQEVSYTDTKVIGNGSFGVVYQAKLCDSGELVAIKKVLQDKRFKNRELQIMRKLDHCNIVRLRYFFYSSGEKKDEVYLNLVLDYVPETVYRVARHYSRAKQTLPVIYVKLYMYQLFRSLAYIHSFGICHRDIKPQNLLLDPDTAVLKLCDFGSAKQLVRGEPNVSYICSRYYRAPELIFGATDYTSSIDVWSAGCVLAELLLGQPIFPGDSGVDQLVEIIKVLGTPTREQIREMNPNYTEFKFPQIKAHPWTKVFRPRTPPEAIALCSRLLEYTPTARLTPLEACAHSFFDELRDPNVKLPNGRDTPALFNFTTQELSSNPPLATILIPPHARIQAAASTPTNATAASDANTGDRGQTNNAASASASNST

GSK3α, sequence (P49840 2-483): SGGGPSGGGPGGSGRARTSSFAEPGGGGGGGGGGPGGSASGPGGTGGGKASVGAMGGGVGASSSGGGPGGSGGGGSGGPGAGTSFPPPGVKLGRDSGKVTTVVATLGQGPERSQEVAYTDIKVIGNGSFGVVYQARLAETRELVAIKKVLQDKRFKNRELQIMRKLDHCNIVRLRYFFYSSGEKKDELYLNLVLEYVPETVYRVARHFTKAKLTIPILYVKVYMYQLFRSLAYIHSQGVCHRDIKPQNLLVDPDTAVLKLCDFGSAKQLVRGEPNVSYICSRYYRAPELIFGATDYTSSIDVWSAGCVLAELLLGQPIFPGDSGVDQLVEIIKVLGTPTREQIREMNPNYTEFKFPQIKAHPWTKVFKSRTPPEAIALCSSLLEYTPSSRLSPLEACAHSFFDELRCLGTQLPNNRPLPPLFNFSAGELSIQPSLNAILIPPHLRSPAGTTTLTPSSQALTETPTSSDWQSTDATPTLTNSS

For the molecule `Nc1cccc(-c2cc3c(Oc4cccc(O)c4)ncnc3[nH]2)c1` [TWS119], the IC50 on GSK3α was 88 nM; at GSK3β, 410 nM.

Broadly, the IC50 is the concentration that gives 50% inhibition. Read a high IC50 as weaker potency in that assay.
